Test results published in patent publication US9079895B2, “Morpholino compounds, uses and methods” (University of Dundee, priority 2012, dated 2015).
Counter-ions that a name gives are not always drawn.

Experiments:
[1] = molecular target: 5HT1a receptor (Homo sapiens (Human), UniProt P08908); test: Secondary radioligand binding assay, 5HT1a; conditions: average of at least two experiments
Description: (§1) Assay Buffer: Standard Binding Buffer (50 mM Tris-HCl, 10 mM MgCl2, 1 mM EDTA, pH 7.4)
(§2) Membrane Fraction Source: Transiently or stably transfected cell lines (e.g., HEK293, COS, CHO, NIH3T3)

[2] = molecular target: 5HT2a receptor (Homo sapiens (Human), UniProt P28223); test: Secondary radioligand binding assay, 5HT2a; conditions: average of at least two experiments
Sequence of 5HT2a receptor (P28223 whole entry): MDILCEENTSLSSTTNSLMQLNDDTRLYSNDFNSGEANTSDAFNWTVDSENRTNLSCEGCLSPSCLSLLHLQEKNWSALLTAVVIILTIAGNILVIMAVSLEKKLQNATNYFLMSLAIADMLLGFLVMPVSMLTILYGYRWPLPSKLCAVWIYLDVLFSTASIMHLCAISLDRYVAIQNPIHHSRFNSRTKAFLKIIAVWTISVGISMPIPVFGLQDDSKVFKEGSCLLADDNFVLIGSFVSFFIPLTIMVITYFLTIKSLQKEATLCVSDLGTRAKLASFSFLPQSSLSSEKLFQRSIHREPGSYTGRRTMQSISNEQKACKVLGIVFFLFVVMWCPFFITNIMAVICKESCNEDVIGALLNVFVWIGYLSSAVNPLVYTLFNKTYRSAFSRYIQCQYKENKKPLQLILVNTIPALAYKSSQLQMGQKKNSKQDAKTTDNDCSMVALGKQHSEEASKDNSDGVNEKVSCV
Description: as §1, §2

[3] = molecular target: dopamine D4 receptor (Homo sapiens (Human), UniProt P21917); test: Secondary radioligand binding assay, D4; conditions: receptor binding; average of at least two experiments; read-out: Ki D4
Sequence of dopamine D4 receptor (P21917 whole entry, species assumed): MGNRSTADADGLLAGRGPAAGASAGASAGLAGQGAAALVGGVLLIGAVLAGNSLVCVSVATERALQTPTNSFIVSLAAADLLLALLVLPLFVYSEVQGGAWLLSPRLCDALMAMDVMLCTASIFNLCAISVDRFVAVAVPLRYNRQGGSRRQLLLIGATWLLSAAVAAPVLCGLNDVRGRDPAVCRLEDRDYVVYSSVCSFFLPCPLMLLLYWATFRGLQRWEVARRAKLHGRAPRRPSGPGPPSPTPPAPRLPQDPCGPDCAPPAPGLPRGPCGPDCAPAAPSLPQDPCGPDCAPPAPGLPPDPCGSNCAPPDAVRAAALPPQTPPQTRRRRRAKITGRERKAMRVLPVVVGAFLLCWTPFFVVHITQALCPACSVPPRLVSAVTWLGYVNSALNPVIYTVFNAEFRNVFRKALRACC
Description: 1. Secondary Radioligand Binding Assays
The detailed experimental protocols for the radioligand and functional receptor assays are available on the NIMH PDSP website at http://pdsp.med.unc.edu/UNC-CH %20Protocol %20Book.pdf.
Radioligand is diluted to five times the assay concentration (see Table 18) in Standard Binding Buffer. Typically, the assay concentration of radioligand is a value between one half the KD and the KD of a particular radioligand at its target. 50 μl aliquots of radioligand are dispensed into the wells of a 96-well plate containing 100 μl of Standard Binding Buffer. Then, duplicate 50 μl aliquots of the test and reference compound dilutions are added.
The 250 μl reactions are incubated at room temperature and shielded from light (to prevent photolysis of light-sensitive ligands) for 1.5 hours, then harvested by rapid filtration onto Whatman GF/B glass fiber filters pre-soaked with 0.3% polyethyleneimine using a 96-well Brandel harverster. Four rapid 500 μl washes are performed with chilled Standard Binding Buffer to reduce non-specific binding. Filters are placed in 6 ml scintillation tubes and allowed to dry overnight. The next day, 4 ml of EcoScint scintillation cocktail (National Diagnostics) are added to each tube. The tubes are capped, labeled, and counted by liquid scintillation counting. […] The filter mats are dried, then scintillant is melted onto the filters and the radioactivity retained on the filters is counted in a Microbeta scintillation counter.
Raw data (dpm) representing total radioligand binding (i.e. specific+non-specific binding) are plotted as a function of the logarithm of the molar concentration of the competitor (i.e. test or reference compound).
B. Dopamine Receptors: D1, D2, D3, D4, D5 Assay Buffers: Dopamine Binding Buffer (50 mM NaCl, 50 mM HEPES-HCl, 5 mM MgCl2, 0.5 mM EDTA, pH 7.4) Membrane Fraction Source: Transiently or stably transfected cell lines (e.g. HEK293, COS, CHO, NIH3T3)
The method is carried out in the manner described for the serotonin receptor assay above. Eleven dilutions (5× assay concentration) of the test and reference (see Table 19) compounds are prepared in Dopamine Binding Buffer by serial dilution, as previously described. Radioligand is diluted to five times the assay concentration (see Table 20) in Dopamine Binding Buffer.

[4] = molecular target: 5HT2c receptor (Homo sapiens (Human), UniProt P28335); test: Secondary radioligand binding assay, 5HT2c; conditions: average of at least two experiments
Sequence of 5HT2c receptor (P28335 33-458): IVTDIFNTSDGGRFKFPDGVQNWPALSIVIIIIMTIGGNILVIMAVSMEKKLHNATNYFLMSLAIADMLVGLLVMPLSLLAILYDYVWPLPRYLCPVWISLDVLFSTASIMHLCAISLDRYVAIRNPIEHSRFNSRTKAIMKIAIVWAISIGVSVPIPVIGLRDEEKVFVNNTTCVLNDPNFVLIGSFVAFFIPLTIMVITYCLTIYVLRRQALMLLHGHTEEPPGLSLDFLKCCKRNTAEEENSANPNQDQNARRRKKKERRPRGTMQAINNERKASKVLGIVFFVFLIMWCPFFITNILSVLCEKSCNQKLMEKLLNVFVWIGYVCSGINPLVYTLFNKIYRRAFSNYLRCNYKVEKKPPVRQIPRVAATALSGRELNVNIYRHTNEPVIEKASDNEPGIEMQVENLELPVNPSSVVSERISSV
Description: as §1, §2

Sequence of 5HT1a receptor (P08908 whole entry): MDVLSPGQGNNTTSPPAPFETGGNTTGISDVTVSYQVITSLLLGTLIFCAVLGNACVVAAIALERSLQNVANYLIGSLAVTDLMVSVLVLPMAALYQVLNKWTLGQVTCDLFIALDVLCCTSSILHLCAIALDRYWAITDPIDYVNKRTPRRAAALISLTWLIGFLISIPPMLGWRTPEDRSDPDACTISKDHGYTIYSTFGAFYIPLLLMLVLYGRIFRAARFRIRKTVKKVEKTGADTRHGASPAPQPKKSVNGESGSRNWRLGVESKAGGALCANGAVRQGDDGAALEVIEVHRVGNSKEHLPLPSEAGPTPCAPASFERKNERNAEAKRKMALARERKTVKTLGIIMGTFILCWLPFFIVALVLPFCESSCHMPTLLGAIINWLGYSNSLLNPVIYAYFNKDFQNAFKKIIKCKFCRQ

Row | Compound | Ki [1] [nM] | Ki [2] [nM] | Ki [3] [nM] | Ki [4] [nM]
1 | COc1cccc(OC[C@H]2CN(CCN3CCc4ccccc43)CCO2)c1 [Compound 25r, (R)-4-(2-(Indolin-1-yl)ethyl)-2-((3-methoxyphenoxy)methyl)morpholine] | 1470 | 3780 | – | –
2 | Fc1ccc(OC[C@@H]2CN(CCN3CCc4ccccc43)CCO2)cc1 [Compound 32s, (S)-2-((4-fluorophenoxy)methyl)-4-(2-(indolin-1-yl)ethyl)morpholine hydrochloride] | – | 374 | 3930 | 1110
